Experimental data published in patent US20210046010A1, “TABLETS CONTAINING ARGININE AT HIGH CONCENTRATION” (KYOWA HAKKO BIO CO., LTD., priority 2015, published 2021).

How the values were obtained:
[1] = Moisture content of powder by heating and drying method moisture analyzer; format: physicochemical; conditions: heating and drying method moisture analyzer MX-50
Description: (§1) 600 g of L-arginine was added to 5 L of water, and the mixture was mixed, and spray dried by a spray dryer [L-8i type spray dryer (manufactured by OHKAWARA KAKOHKI CO., LTD.)] set to the conditions of atomizer rotation number=35,000 rpm, inlet temperature=180° C. and outlet temperature=70° C. to give a powder. The moisture content of the aforementioned powder was measured by a heating and drying method moisture analyzer [heating and drying method moisture analyzer MX-50 (manufactured by A&D Company, Limited)] to find 1.96 mass % The moisture content was 2.3 mass % when measured by the Karl Fischer's method at the General Incorporated Foundations Japan Food Research Laboratories. Hereinafter this powder is indicated to as “SD arginine-A”.

[2] = Moisture content of powder by Karl Fischer's method; format: physicochemical; conditions: Japan Food Research Laboratories
Description: as §1

Compound N=C(N)NCCC[C@H](N)C(=O)O [SD arginine-A, L-arginine] has a moisture content [1] of 1.96 mass % and a moisture content [2] of 2.3 mass %.

Work on N=C(N)NCCC[C@H](N)C(=O)O [SD arginine-B, L-arginine] yielded a moisture content [1] of 1.81 mass %.

Work on N=C(N)NCCC[C@H](N)C(=O)O [SD arginine-C, L-arginine] yielded a moisture content [1] of 3.80 mass % and a moisture content [2] of 3.91 mass %.
